Assay results from patent publication US10610522B2, “Methods for retreating irritable bowel syndrome (IBS)” (Salix Pharmaceuticals, Inc., priority 2014, dated 2020).

Test system: non-constipation IBS
Assay: Combined first and second studies (TARGET 1 and 2): pooled efficacy, sustained response and recurrence
Assay type: in vivo, human
Design: Responders: abdominal pain reduction of 2 point in median / Responders: abdominal pain reduction of 3 point in median / Responders: abdominal pain reduction of 1 point in weekly median / Responders: abdominal pain reduction of 1 point in weekly mean / Responders: abdominal pain reduction of 2 point in mean: concentration or dose not given beside the values
Description: A measure of efficacy is based on subjects' answers to the Weekly Subject Global Assessment (SGA) questions over the study duration in relation to their IBS symptoms.
An evaluation of the enrolled subjects was carried out after the Primary Evaluation Period in the study described in Examples 5-7. […] Subjects with no recurrence are defined as having a stool consistency score of less than 4, abdominal pain reduced by at least 30 percent or both.

[1] = Combined, at least 2 weeks during PEP
[2] = Rolling 2-5 Weeks, Rifaximin (N = 624), n (%)
[3] = Rolling 3-6 Weeks, Rifaximin (N = 624), n (%)
[4] = Rolling 4-7 Weeks, Rifaximin (N = 624), n (%)
[5] = Rolling 4 Weeks: 4-7 Weeks, N = 624
[6] = Rolling 4 Weeks: 5-8 Weeks, N = 624
[7] = Rolling 4 Weeks: 6-9 Weeks, N = 624

SMILES: CO[C@H]1/C=C/O[C@@]2(C)Oc3c(C)c(O)c4c(O)c(c5c(nc6cc(C)ccn65)c4c3C2=O)NC(=O)/C(C)=C\C=C\[C@H](C)[C@H](O)[C@@H](C)[C@@H](O)[C@@H](C)[C@H](OC(C)=O)[C@@H]1C [Rifaximin, (2S,16Z,18E,20S,21S,22R,23R,24R,25S,26S,27S,28E)-5,6,21,23,25 Pentahydroxy-27-methoxy-2,4,11,16,20,22,24,26-octamethyl-2,7-(epoxypentadeca-(1,11,13)trienimino) benzofuro (4,5-e) pyrido(1,2-a) benzimidazole-1,15(2H)-dione,25-acetate]
- IBS symptom of bloating: adequate relief at least 2 out of 4 weeks during weeks 3 through 6 (weekly question) (Combined): 40%
- Global IBS symptoms: adequate relief at least 2 out of 4 weeks during weeks 3 through 6 (weekly question) (Combined, 550 mg TID 14 d): 32% vs 41%
- Responders: abdominal pain reduction of 1 point in weekly mean [1]: 52%
- Responders: abdominal pain reduction of 1 point in weekly median [1]: 63%
- Responders: abdominal pain reduction of 2 point in mean [1]: 25%
- Responders: abdominal pain reduction of 2 point in median [1]: 39%
- Responders: abdominal pain reduction of 3 point in mean [1]: 6% vs 7%
- Responders: abdominal pain reduction of 3 point in median [1]: 21%
- Responders: daily abdominal pain < 2 for at least 50% of days in a week [1]: 39%
- Responders: overall reduction of mean weekly abdominal pain by >= 25% [1]: 57%
- Responders: overall reduction of mean weekly abdominal pain by >= 50% [1]: 35%
- Responders: overall reduction of mean weekly abdominal pain by >= 75% [1]: 14%
- Responders: overall reduction of median weekly abdominal pain by >= 25% [1]: 62%
- Responders: overall reduction of median weekly abdominal pain by >= 50% [1]: 44%
- Responders: overall reduction of median weekly abdominal pain by >= 75% [1]: 21%
- Sustained Durable Response (No Recurrence), Abdominal Pain & Stool Consistency: % of subjects (N = 624): (33.2%)
- Sustained Durable Response (No Recurrence), Abdominal Pain & Stool Consistency: number of subjects (N = 624): 207
- Sustained Durable Response (No Recurrence), Abdominal Pain: % of subjects (N = 624): (35.7%)
- Sustained Durable Response (No Recurrence), Abdominal Pain: number of subjects (N = 624): 223
- Sustained Durable Response (No Recurrence), Stool Consistency: % of subjects (N = 624): (68.9%)
- Sustained Durable Response (No Recurrence), Stool Consistency: number of subjects (N = 624): 430
- Abdominal Pain or Stool Consistency, Sustained Durable Response (Rifaximin (N = 624), n (%)): 180 (28.8%)
- Abdominal Pain or Stool Consistency, No Recurrence [2]: 286 (45.8%)
- Abdominal Pain or Stool Consistency, Recurrence [2]: 12 (1.9%)
- Abdominal Pain or Stool Consistency, No Recurrence [3]: 274 (43.9%)
- Abdominal Pain or Stool Consistency, Recurrence [3]: 23 (3.7%)
- Abdominal Pain or Stool Consistency, No Recurrence [4]: 251 (40.2%)
- Abdominal Pain or Stool Consistency, Recurrence [4]: 17 (2.7%)
- No Recurrence, Abdominal Pain & Stool Consistency: % of subjects [5]: (48.2%)
- No Recurrence, Abdominal Pain & Stool Consistency: number of subjects [5]: 301
- No Recurrence, Abdominal Pain: % of subjects [5]: (51.9%)
- No Recurrence, Abdominal Pain: number of subjects [5]: 324
- No Recurrence, Stool Consistency: % of subjects [5]: (78.8%)
- No Recurrence, Stool Consistency: number of subjects [5]: 492
- Recurrence, Abdominal Pain & Stool Consistency: % of subjects [5]: 3.7%
- Recurrence, Abdominal Pain & Stool Consistency: number of subjects [5]: 23
- Recurrence, Abdominal Pain: % of subjects [5]: 3.8%
- Recurrence, Abdominal Pain: number of subjects [5]: 24
- Recurrence, Stool Consistency: % of subjects [5]: 1.3%
- Recurrence, Stool Consistency: number of subjects [5]: 8
- No Recurrence, Abdominal Pain & Stool Consistency: % of subjects [6]: (44.6%)
- No Recurrence, Abdominal Pain & Stool Consistency: number of subjects [6]: 278
- No Recurrence, Abdominal Pain: % of subjects [6]: (48.1%)
- No Recurrence, Abdominal Pain: number of subjects [6]: 300
- No Recurrence, Stool Consistency: % of subjects [6]: (77.6%)
- No Recurrence, Stool Consistency: number of subjects [6]: 484
- Recurrence, Abdominal Pain & Stool Consistency: % of subjects [6]: 3.2%
- Recurrence, Abdominal Pain & Stool Consistency: number of subjects [6]: 20
- Recurrence, Abdominal Pain: % of subjects [6]: 3.0%
- Recurrence, Abdominal Pain: number of subjects [6]: 19
- Recurrence, Stool Consistency: % of subjects [6]: 2.1%
- Recurrence, Stool Consistency: number of subjects [6]: 13
- No Recurrence, Abdominal Pain & Stool Consistency: % of subjects [7]: (41.3%)
- No Recurrence, Abdominal Pain & Stool Consistency: number of subjects [7]: 258
- No Recurrence, Abdominal Pain: % of subjects [7]: (45.0%)
- No Recurrence, Abdominal Pain: number of subjects [7]: 281
- No Recurrence, Stool Consistency: % of subjects [7]: (75.5%)
- No Recurrence, Stool Consistency: number of subjects [7]: 471
- Recurrence, Abdominal Pain & Stool Consistency: % of subjects [7]: 2.2%
- Recurrence, Abdominal Pain & Stool Consistency: number of subjects [7]: 14
- Recurrence, Abdominal Pain: % of subjects [7]: 2.4%
- Recurrence, Abdominal Pain: number of subjects [7]: 15
- Recurrence, Stool Consistency: % of subjects [7]: 2.6%
- Recurrence, Stool Consistency: number of subjects [7]: 16
- No Recurrence, Abdominal Pain & Stool Consistency: % of subjects (Rolling 4 Weeks: 7-10 Weeks, N = 624): (39.1%)
